# In PubChem BioAssay AID276 (DTP/NCI, 2004):
# “And” between values parts separate entries of the source, which are not always exact repeats. Equal entries are not always repeated. Toxic doses and inconclusive results are not listed.
# Test system: B6C3F1 mice, Lewis lung carcinoma iv, survival T/C
# Assay: NCI In Vivo Anticancer Drug Screen. Data for tumor model Lewis Lung Carcinoma (intravenous) in B6C3F1 mice
# Conditions: endpoint: median survival time, schedule: Q01DX009 (ip), higher = longer survival
# How it was run: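 Transplantable tumor in mice; compound treated vs vehicle controls; read-out survival; value = treated/control (T/C).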
# [1] = dose: 25.0 mg/kg/injection, vehicle: Klucel (hydroxypropylcellulose) (HPC)
# [2] = dose: 100.0 mg/kg/injection, vehicle: Klucel (hydroxypropylcellulose) (HPC)
# [3] = dose: 200.0 mg/kg/injection, vehicle: Klucel (hydroxypropylcellulose) (HPC)
# [4] = dose: 6.25 mg/kg/injection, vehicle: saline with Tween-80
# [5] = dose: 12.5 mg/kg/injection, vehicle: saline with Tween-80
# [6] = dose: 25.0 mg/kg/injection, vehicle: saline with Tween-80
# [7] = dose: 50.0 mg/kg/injection, vehicle: saline with Tween-80
# [8] = dose: 50.0 mg/kg/injection, vehicle: Klucel (hydroxypropylcellulose) (HPC)
# [9] = dose: 50.0 mg/kg/injection, vehicle: saline
# [10] = dose: 100.0 mg/kg/injection, vehicle: saline
# [11] = dose: 200.0 mg/kg/injection, vehicle: saline
# [12] = dose: 400.0 mg/kg/injection, vehicle: saline
# [13] = dose: 12.0 mg/kg/injection, vehicle: saline
# [14] = dose: 25.0 mg/kg/injection, vehicle: saline
# [15] = dose: 0.12 mg/kg/injection, vehicle: saline
# [16] = dose: 0.25 mg/kg/injection, vehicle: saline
# [17] = dose: 1.0 mg/kg/injection, vehicle: saline
# [18] = dose: 25.0 mg/kg/injection, vehicle: water
# [19] = dose: 50.0 mg/kg/injection, vehicle: water
# [20] = dose: 12.5 mg/kg/injection, vehicle: saline
# [21] = dose: 100.0 mg/kg/injection, vehicle: saline with Tween-80
# [22] = dose: 200.0 mg/kg/injection, vehicle: saline with Tween-80
# [23] = dose: 6.25 mg/kg/injection, vehicle: water
# [24] = dose: 12.5 mg/kg/injection, vehicle: water
smiles,measurement,setting,value
COc1ccc2ccccc2c1C1NC(=O)c2ccccc2N1 (centres undefined),T/C,"dose: 12.5 mg/kg/injection, vehicle: Klucel (hydroxypropylcellulose) (HPC)",97 % of control
same,T/C,[1],100 % of control
same,T/C,[2],99 % of control
same,T/C,[3],101 % of control
same,T/C,"dose: 400.0 mg/kg/injection, vehicle: Klucel (hydroxypropylcellulose) (HPC)",101 % of control
CC1/C=C/C=C/CC/C=C/C=C/C=C/C=C/C(OC2OC(C)C(O)C(N)C2O)CC2OC(CC(O)C(O)CCC(O)CC(O)CC(O)CC(=O)OC(C)C(C)C1O)CC(O)C2C(=O)O (centres undefined),T/C,[4],103 % of control
same,T/C,[5],103 % of control
same,T/C,[6],98 % of control
same,T/C,[7],101 % of control
CN(C)C(=O)SC1=C(c2c(Cl)cccc2Cl)C(=O)c2ccccc21,T/C,[1],102 % of control
same,T/C,[8],110 % of control
same,T/C,[2],105 % of control
same,T/C,[3],108 % of control
CCc1nc(N)nc(N)c1-c1ccc(Cl)c([N+](=O)[O-])c1,T/C,"dose: 1.56 mg/kg/injection, vehicle: saline with Tween-80",104 % of control
same,T/C,"dose: 3.12 mg/kg/injection, vehicle: saline with Tween-80",105 % of control
same,T/C,[4],104 % of control
same,T/C,[5],105 % of control
NC(CCC(=O)NC(CS)C(=O)NCC(=O)O)C(=O)O (centres undefined),T/C,[9],100 % of control
same,T/C,[10],101 % of control
same,T/C,[11],95 % of control
same,T/C,[12],103 % of control
CNC(=O)OCc1c(COC(=O)NC)c(-c2ccc(Cl)c(Cl)c2)n2c1Cc1ccccc1C2,T/C,"dose: 12.5 mg/kg/injection, vehicle: distilled water + Tween-80",102 % of control
same,T/C,"dose: 25.0 mg/kg/injection, vehicle: distilled water + Tween-80",114 % of control
same,T/C,"dose: 50.0 mg/kg/injection, vehicle: distilled water + Tween-80",101 % of control and 105 % of control
CC(=O)OC1C2(CC3N4C(=O)C5(CO)SSC4(CC31O)C(=O)N5C)OC(C)C(C)(C)C2=O (centres undefined),T/C,"dose: 0.08 mg/kg/injection, vehicle: saline",101 % of control
same,T/C,"dose: 0.15 mg/kg/injection, vehicle: saline",88 % of control
same,T/C,"dose: 0.31 mg/kg/injection, vehicle: saline",105 % of control
same,T/C,"dose: 0.62 mg/kg/injection, vehicle: saline",92 % of control
same,T/C,"dose: 1.25 mg/kg/injection, vehicle: saline",86 % of control
CCn1cnc2c(=S)nc[nH]c21,T/C,[13],100 % of control
same,T/C,[14],99 % of control
same,T/C,[9],104 % of control
CO[C@@]12[C@H](COC(N)=O)C3=C(C(=O)C(C)=C(N)C3=O)N1C[C@@H]1N[C@@H]12,T/C,[15],101 % of control
same,T/C,[16],103 % of control and 109 % of control
same,T/C,"dose: 0.5 mg/kg/injection, vehicle: saline",118 % of control
same,T/C,[17],107 % of control
COc1cccc2c1C(=N)c1c(O)c3c(c(O)c1C2=O)C[C@@](O)(C(C)=O)C[C@@H]3OC1CC(N)C(O)C(C)O1 (some centres undefined),T/C,[17],103 % of control
same,T/C,"dose: 2.0 mg/kg/injection, vehicle: saline",96 % of control
same,T/C,"dose: 4.0 mg/kg/injection, vehicle: saline",105 % of control
Cc1cc(NC(=S)SCc2ccc3c(c2)OCO3)ccc1Cl,T/C,[1],114 % of control
same,T/C,[8],114 % of control
same,T/C,[2],115 % of control
OC1OC2COC(c3ccccc3)OC2C(O)C1O (centres undefined),T/C,[18],101 % of control
same,T/C,[19],99 % of control
same,T/C,"dose: 100.0 mg/kg/injection, vehicle: water",98 % of control
same,T/C,"dose: 200.0 mg/kg/injection, vehicle: water",101 % of control
same,T/C,"dose: 400.0 mg/kg/injection, vehicle: water",99 % of control
same,T/C,"dose: 800.0 mg/kg/injection, vehicle: water",93 % of control
CS(=O)(=O)CS(=O)(=O)OCCCl,T/C,[20],107 % of control
same,T/C,[14],120 % of control
same,T/C,[9],284 % of control
same,T/C,[10],239 % of control
CN(C)P(=O)(Oc1ccccc1)N(C)C,T/C,[5],113 % of control
same,T/C,[6],98 % of control
same,T/C,[7],101 % of control
same,T/C,[21],115 % of control
same,T/C,[22],101 % of control
same,T/C,"dose: 400.0 mg/kg/injection, vehicle: saline with Tween-80",100 % of control
N=c1ccc2nc3ccc(N)cc3sc-2c1,T/C,[23],113 % of control
same,T/C,[24],117 % of control
same,T/C,[18],93 % of control
CCCCOCN(COCCCC)C(C)Cc1ccccc1 (centres undefined),T/C,[5],96 % of control
same,T/C,[6],107 % of control
same,T/C,[7],104 % of control
same,T/C,[21],92 % of control
same,T/C,[22],89 % of control
C=CCCC(=O)CCCC(=O)O[C@@H]1[C@@H]2[C@H](CC1(C)C)[C@H](O)[C@@]13O[C@@H]1[C@H](O)[C@@]1(CO1)[C@@]23C,T/C,"dose: 3.12 micrograms/kg/injection, vehicle: Klucel (hydroxypropylcellulose) (HPC)",113 % of control
same,T/C,"dose: 6.25 micrograms/kg/injection, vehicle: Klucel (hydroxypropylcellulose) (HPC)",98 % of control
same,T/C,"dose: 12.5 micrograms/kg/injection, vehicle: Klucel (hydroxypropylcellulose) (HPC)",97 % of control
same,T/C,"dose: 25.0 micrograms/kg/injection, vehicle: Klucel (hydroxypropylcellulose) (HPC)",94 % of control
same,T/C,"dose: 50.0 micrograms/kg/injection, vehicle: Klucel (hydroxypropylcellulose) (HPC)",110 % of control
O=NN(CCCl)C(=O)NC1CCC(CC2CCC(NC(=O)N(CCCl)N=O)CC2)CC1 (centres undefined),T/C,[6],190 % of control
same,T/C,[7],165 % of control
C[n+]1c2cc(N)ccc2cc2ccc(N)cc21,T/C,"dose: 1.5 mg/kg/injection, vehicle: saline",102 % of control
same,T/C,"dose: 3.0 mg/kg/injection, vehicle: saline",95 % of control
same,T/C,"dose: 6.0 mg/kg/injection, vehicle: saline",107 % of control
same,T/C,[13],90 % of control
NC(=O)c1csc(C2O[C@@H](COP(=O)(O)OP(=O)(O)OC[C@H]3OC(n4cnc5c(N)ncnc54)[C@H](O)[C@@H]3O)[C@H](O)[C@@H]2O)n1 (some centres undefined),T/C,"dose: 3.12 mg/kg/injection, vehicle: water",101 % of control
same,T/C,[23],98 % of control
same,T/C,[24],104 % of control
same,T/C,[18],120 % of control
same,T/C,[19],209 % of control
c1nc(N2CC2)c2cnn(C3CCCCO3)c2n1 (centres undefined),T/C,[7],103 % of control
same,T/C,[21],107 % of control
same,T/C,[22],112 % of control
CC(=O)[C@]1(O)Cc2c(O)c3c(c(O)c2[C@@H](OC2CC(N)C(O)C(C)O2)C1)C(=O)c1c(O)cccc1C3=O (some centres undefined),T/C,"dose: 0.03 mg/kg/injection, vehicle: saline",107 % of control
same,T/C,"dose: 0.06 mg/kg/injection, vehicle: saline",96 % of control
same,T/C,[15],108 % of control
same,T/C,[16],117 % of control
CN(C)CCC(=O)C(=Cc1ccc(O)cc1)C(=O)CCN(C)C,T/C,[20],97 % of control
same,T/C,[14],101 % of control
same,T/C,[9],102 % of control
same,T/C,[10],105 % of control and 106 % of control
same,T/C,[11],104 % of control and 107 % of control
CCCN1COC(OCC)C(C)(C)C1 (centres undefined),T/C,[5],103 % of control and 111 % of control
same,T/C,[6],93 % of control and 99 % of control
same,T/C,[7],106 % of control and 112 % of control
same,T/C,[21],100 % of control and 101 % of control
Cn1cnc([N+](=O)[O-])c1SCC(=O)O,T/C,[20],100 % of control
same,T/C,[14],107 % of control
same,T/C,[9],103 % of control
same,T/C,[10],93 % of control
same,T/C,[11],104 % of control
same,T/C,[12],96 % of control
NC(=S)N/N=C/c1ccc(OC(=O)COc2ccc(Cl)cc2)cn1,T/C,[5],99 % of control and 100 % of control
same,T/C,[6],92 % of control and 99 % of control
same,T/C,[7],95 % of control and 101 % of control
same,T/C,[21],92 % of control and 107 % of control
same,T/C,[22],116 % of control
